Measurements reported in US8158750B2, “Preparation and standardization of immunomodulatory peptide-linked glucans with verifiable oral absorbability from coriolus versicolor” (The Chinese University of Hong Kong, priority 2002, dated 2012).

Tested on: murine peritoneal macrophages
Experiment: Secretion of nitric oxide by murine peritoneal macrophages in vitro (Griess reaction)
Assay type: cell-based, ICR mice
Details: 24 hours
Procedure: Ten ICR mice were injected intraperitoneally with 1 ml 3% w/v aqueous thioglycolate. After 3 days, the mice were sacrificed by cervical dislocation. Macrophages were harvested by opening the peritoneum and lavaging the space with PBS. The PBS lavage from each sacrificed mouse was pooled. […] The cells were allowed to adhere on the bottom of the wells of microtiter plates for 1 hr at 37° C. in a humidified atmosphere of […] and 5% CO2. Next, the supernatant in the wells was carefully removed. […] The contacted cells were incubated at 37° C. in a humidified atmosphere of […] and 5% CO2 for 24 hours. At 24 hours, the amount of nitrate present in the cell-free culture medium was determined by the Griess reaction. (See Green L. C. et al, Analysis of nitrate, nitrite, and [15N] nitrate in biological fluids, Anal. Biochem., 1982, 126:131-138.) A 150 μl aliquot of cell-free culture medium was pipetted from each microtiter plate well, and reacted with 50 μl of Griess reagent for 10 minutes in a fresh microtiter plate well. Absorbance of the aliquot was then measured at 540 nm using a microplate reader (BTI, ELX 800).

Substance: lipopolysaccharide [LPS]
- Increased secretion of nitric oxide, dose dependence: dose-dependent at low LPS concentrations
